Data on one compound can be found in US20240132503A1, “SALT FORM AND CRYSTAL FORM OF PYRAZOLE SUBSTITUTED IMIDAZO[1,2- A]QUINOXALINE DERIVATIVE” (OCUMENSION THERAPEUTICS (SUZHOU) CO., LTD, priority 2021, published 2024).

The target of the test is Syk protein kinase (Homo sapiens (Human), UniProt P43405). Nature of the test: In vitro evaluation of inhibitory activity against Syk protein kinase (HTRF KinEASE TK). Type of test: biochemical. The text has this: Test purpose: to measure an inhibitory IC50 value of the compounds against Syk protein kinase.
Test material: Syk kinase (Invitrogen, PV3857) • DTT (Sigma#43815): dithiothreitol • ATP (Sigma#A7699): triphosadenine • MgCl2 (Sigma#63020): magnesium chloride • MnCl2 (Sigma#M1787): manganese chloride • EDTA (Invitrogen#15575-020): ethylenediaminetetraacetic acid • HEPES Buffer (Invitrogen#15630-080): zwitterionic sulfonic acid buffer • HTRF® KinEASE™ TK (Cisbio#62TK0PEC, 20000 tests): HTRF kinase kit • Low volume, 384-well, white polystyrene plate (Greiner#784075) • 384-well microplates (Greiner#781946) • Centrifuge (Eppendorf#5810R) • Micropipette (Eppendorf) • Pipette (Greiner) • Pipettor (Eppendorf) • Mutidorp injector • POD 810 Plate Assembler Fully Automatic Microplate Pretreatment System • Envision Reader […]
In general terms: Time-resolved FRET reads energy transfer from a long-lived donor to a nearby acceptor.

Broadly, the IC50 is the midpoint of a concentration-inhibition curve. Under “ATP 2 μM”, `c1cn2c(n1)c(Nc1ccc(N3CCOCC3)cc1)nc1ccc(-c3cn[nH]c3)cc12` yielded a half-inhibitory concentration (IC50) of 25 nM. Also, the “inhibitory activity against Syk” value (conclusion in words) is recorded as “good inhibitory activity”.
